# Test results from patent publication US9763445B2, “Safened herbicidal compositions comprising a pyridine carboxylic acid herbicide” (Dow AgroSciences, LLC, priority 2014, dated 2017).
# Assays:
# pigweed (AMARE) = experiment: Postemergence greenhouse trial, % visual injury on pigweed; format: in vivo, Amaranthus retroflexus; conditions: Amaranthus retroflexus, post-emergence; alone, 35 g/ha; read-out: % visual injury, Ob
# Outline: (§1)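 Postemergence greenhouse spray (187 L/ha, 1.5% v/v Agri-dex in water, acetone/DMSO stocks) on plants at second–third true leaf stage, ~23/22 °C, 14 h photoperiod; herbicides in g ae/ha, safener cloquintocet-mexyl in g ai/ha. Visual injury 0–100% versus solvent-blank controls after 20–22 d; Colby's equation gave expected mixture effects.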
# thistle (CIRAR) = experiment: Postemergence greenhouse trial, % visual injury on thistle; format: in vivo, Cirsium arvense; conditions: Cirsium arvense, post-emergence; alone, 35 g/ha; read-out: % visual injury, Ob
# Experimental: (§2) Seeds of the desired test plant species were planted in Sun Gro MetroMix® 306 planting mixture, which typically has a pH of 6.0 to 6.8 and an organic matter content of about 30 percent, in plastic pots with a surface area of 103.2 square centimeters (cm^2). When required to ensure good germination and healthy plants, a fungicide treatment and/or other chemical or physical treatment was applied. The plants were grown for 7-36 days (d) in a greenhouse with an approximate 14-hour (h) photoperiod which was maintained at about 23° C. during the day and 22° C. during the night. Nutrients and water were added on a regular basis and supplemental lighting was provided with overhead metal halide 1000-Watt lamps as necessary. The plants were employed for testing when they reached the second or third true leaf stage.
# (§3) Weighed amounts of technical material were dissolved in a volume of 97:3 volume per volume (v/v) acetone/dimethyl sulfoxide (DMSO) to stock solutions. […] The concentrated stock solutions were diluted with an aqueous mixture of 1.5% v/v of Agri-dex crop oil concentrate to provide the appropriate application rates. Compound requirements are based upon a 12 milliliter (mL) application volume at a rate of 187 liters per hectare (L/ha). Stocks solutions of the safeners were prepared following the same procedure. Spray solutions of the safeners and experimental compound mixtures were prepared by adding the stock solutions to the appropriate amount of dilution solution to form a 12 mL spray solution in two-way combinations. Formulated compounds were applied to the plant material with an overhead Mandel track sprayer equipped with 8002E nozzles calibrated to deliver 187 L/ha over an application area of 0.503 square meters (m^2) at a spray height of 18 inches (43 centimeters (cm)) above average plant canopy. Control plants were sprayed in the same manner with the solvent blank. All herbicide application (component a) rates are in g ae/ha and all safener (component b) rates are in g ai/ha.
# (§4) The treated plants and control plants were placed in a greenhouse as described above and watered by sub-irrigation to prevent wash-off of the test compounds. After 20-22 d, the condition of the test plants as compared with that of the control plants was determined visually and scored on a scale of 0 to 100 percent where 0 corresponds to no injury and 100 corresponds to complete kill. The condition of the test plants was compared with that of the control plants as determined visually and scored on a scale of 0 to 100 percent, where 0 corresponds to no injury and 100 corresponds to complete kill. Colby's equation was used to determine the herbicidal effects expected from the mixtures.
# (§5) The safener cloquintocet-mexyl was combined with compound 1, compound 2, compound 4, compound 5, and compound 6, and applied to corn/maize (ZEAMX) and spring wheat (TRZAS) and the phytotoxicity of the herbicidal compositions was measured. In addition, the efficacy of the herbicidal composition on velvetleaf (ABUTH, Abutilon theophrasti), pigweed (AMARE, Amaranthus retroflexus), winter rape (BRSNW, Brassica napus), lambsquarters (CHEAL, Chenopodium album), thistle (CIRAR, Cirsium arvense), nutsedge (CYPES, Cyperus esculentus), poinsettia (EPHHL, Euphorbia heterophylla), wild buckwheat (POLCO, Polygonum convolvulus), giant foxtail (SETFA, Setaria faberi), and chickweed (STEME, Stellaria media) was evaluated. […]
# poinsettia (EPHHL) = experiment: Postemergence greenhouse trial, % visual injury on poinsettia; format: in vivo, Euphorbia heterophylla; conditions: alone, 35 g/ha
# Experimental: as §2
# (§6) Weighed amounts of technical material were dissolved in a volume of 97:3 volume per volume (v/v) acetone/dimethyl sulfoxide (DMSO) to stock solutions. […] The concentrated stock solutions were diluted with an aqueous mixture of 1.5% v/v of Agri-dex crop oil concentrate to provide the appropriate application rates. Compound requirements are based upon a 12 milliliter (mL) application volume at a rate of 187 liters per hectare (L/ha). Stocks solutions of the safeners were prepared following the same procedure. […]
# as §4, with “Colby's equation was used to determine the herbicidal effects expected from the mixtures.” left out
# as §5
# velvetleaf (ABUTH) = experiment: Postemergence greenhouse trial, % visual injury on velvetleaf; format: in vivo, Abutilon theophrasti; conditions: alone, 35 g/ha
# Experimental: as §2, §3, §4
# (§7) The safener cloquintocet-mexyl was combined with compound 1, compound 2, compound 4, compound 5, and compound 6, and applied to corn/maize (ZEAMX) and spring wheat (TRZAS) and the phytotoxicity of the herbicidal compositions was measured. In addition, the efficacy of the herbicidal composition on velvetleaf (ABUTH, Abutilon theophrasti), pigweed (AMARE, Amaranthus retroflexus), winter rape (BRSNW, Brassica napus), lambsquarters (CHEAL, Chenopodium album), thistle (CIRAR, Cirsium arvense), nutsedge (CYPES, Cyperus esculentus), poinsettia (EPHHL, Euphorbia heterophylla), wild buckwheat (POLCO, Polygonum convolvulus), giant foxtail (SETFA, Setaria faberi), and chickweed (STEME, Stellaria media) was evaluated.
# (§8) The safener cloquintocet-mexyl was combined with compound 1, compound 2, compound 3, compound 7, compound 8, compound 9, compound 10, compound 11, compound 12, compound 13, compound 14, compound 15, compound 16, compound 17, compound 18, compound 19, and compound 20, and applied to spring wheat (TRZAS), winter wheat (TRZAW), and spring barley (HORVS) and the phytotoxicity of the herbicidal compositions was measured. […]
# chickweed (STEME) = experiment: Postemergence greenhouse trial, % visual injury on chickweed; format: in vivo, Stellaria media; conditions: alone, 35 g/ha
# Experimental: as §2, §3, §4, §5
# wild buckwheat (POLCO) = experiment: Postemergence greenhouse trial, % visual injury on wild buckwheat; format: in vivo, Polygonum convolvulus; conditions: alone, 35 g/ha
# Experimental: as §2, §3, §4, §7, §8
# spring wheat (TRZAS) = experiment: Postemergence greenhouse trial, % visual injury on spring wheat; format: in vivo, Triticum aestivum; conditions: alone, 35 g/ha
# Outline: as §1
# lambsquarters (CHEAL) = experiment: Postemergence greenhouse trial, % visual injury on lambsquarters; format: in vivo, Chenopodium album; conditions: Chenopodium album, post-emergence; alone, 35 g/ha; read-out: % visual injury, Ob
# Experimental: as §2, §3, §4, §7, §8
# winter rape (BRSNW) = experiment: Postemergence greenhouse trial, % visual injury on winter rape; format: in vivo, Brassica napus; conditions: Brassica napus, post-emergence; alone, 35 g/ha; read-out: % visual injury, Ob
# Outline: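 Plants at second or third true leaf stage, greenhouse-grown (14 h photoperiod, ~23/22° C.), sprayed postemergence with compounds alone or with safener cloquintocet-mexyl in 1.5% v/v Agri-dex crop oil at 187 L/ha. Visual injury scored 0–100% versus solvent-blank controls after 20-22 d; expected mixture effects by Colby's equation.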
# corn/maize (ZEAMX) = experiment: Postemergence greenhouse trial, % visual injury on corn/maize; format: in vivo, Zea mays; conditions: alone, 35 g/ha
# Experimental: as §2, §3, §4, §5
# giant foxtail (SETFA) = experiment: Postemergence greenhouse trial, % visual injury on giant foxtail; format: in vivo, Setaria faberi; conditions: alone, 35 g/ha
# Experimental: as §2
# as §6, with “(L/ha).” for “(L/ha). Stocks solutions of the safeners were prepared following the same procedure.”
# as §4, with “Colby's equation was used to determine the herbicidal effects expected from the mixtures.” left out
# The safener cloquintocet-mexyl was combined with compound 1, compound 2, compound 4, compound 5, and compound 6, and applied to corn/maize (ZEAMX) and spring wheat (TRZAS) and the phytotoxicity of the herbicidal compositions was measured. […]
smiles,measurement,setting,value
COC(=O)c1nc(-c2ccc3ccn(C(=O)C(C)(C)C)c3c2F)c(F)c(N)c1Cl [compound 5],pest or weed control at 35 g/ha,pigweed (AMARE),100%
same,pest or weed control at 35 g/ha,thistle (CIRAR),80%
same,"% visual injury, Ob",poinsettia (EPHHL),100%
same,"% visual injury, Ob",velvetleaf (ABUTH),80%
same,"% visual injury, Ob",chickweed (STEME),85%
same,"% visual injury, Ob",wild buckwheat (POLCO),100%
same,"% visual injury, Ob",spring wheat (TRZAS),45%
same,pest or weed control at 35 g/ha,lambsquarters (CHEAL),100%
same,plant injury at 35 g/ha,winter rape (BRSNW),97%
same,"% visual injury, Ob",corn/maize (ZEAMX),35%
same,"% visual injury, Ob",giant foxtail (SETFA),60%
